Data: ChEMBL document CHEMBL1201862, “PubChem BioAssay data set” (2004)
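Grown in 96-well plates, cells were treated for 48 hours with each compound at five concentrations. Insufficient inhibition: endpoint recorded as highest concentration tested. Here, GI50 denotes the concentration required for 50% inhibition of growth.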 The source made the active and inactive calls. Cut-off read from the data, not from the text of the source: active = GI50 up to about 1.1 µM and inactive = higher.

Key:
Assay in all cases: inhibition of tumour cell growth, NCI panel, 48 h
[1] = test system: HOP-62
[2] = test system: DLD-1
[3] = test system: OVCAR-4
[4] = test system: NCI-H460
[5] = test system: UO-31
[6] = test system: CCRF-CEM
[7] = test system: NCI-H226
[8] = test system: DMS-114
[9] = test system: SNB-75
[10] = test system: RXF 393
[11] = test system: KM12
[12] = test system: KM-20L2
[13] = test system: SF-539
[14] = test system: OVCAR-5
[15] = test system: SF-268
[16] = test system: LOX IMVI
[17] = test system: COLO 205
[18] = test system: EKVX
[19] = test system: A498
[20] = test system: UACC-257
[21] = test system: HL-60
[22] = test system: MOLT-4
[23] = test system: CAKI-1
[24] = test system: Malme-3M
[25] = test system: DMS-273
[26] = test system: K562
[27] = test system: RPMI-8226
[28] = test system: HCT-15
[29] = test system: UACC-62
[30] = test system: OVCAR-3
[31] = test system: NCI-H522
[32] = test system: HT-29
[33] = test system: NCI/ADR-RES
[34] = test system: SK-MEL-28
[35] = test system: SN12C
[36] = test system: SK-MEL-5
[37] = test system: IGROV-1
[38] = test system: HOP-18
[39] = test system: SW-620
[40] = test system: SNB-19
[41] = test system: XF498
[42] = test system: SK-OV-3
[43] = test system: HCT-116
[44] = test system: HOP-92
[45] = test system: U-251
[46] = test system: OVCAR-8
[47] = test system: MCF7
[48] = test system: M19-MEL
[49] = test system: NCI-H23
[50] = test system: SK-MEL-2
[51] = test system: HCC 2998
[52] = test system: SF-295
[53] = test system: SNB-78
[54] = test system: A549
[55] = test system: ACHN
[56] = test system: 786-0
[57] = test system: TK-10
[58] = test system: M14
[59] = test system: SR
[60] = test system: LXFL 529

`S=P1(N2CCCCC2)Oc2ccc3ccccc3c2-c2c(ccc3ccccc23)O1` was tested, and the GI50 [1] was > 100 µM (inactive), the GI50 [2] was 91.2 µM (inactive) and the GI50 [3] was 27.5 µM (inactive). The GI50 [4] was 33.6 µM (inactive), the GI50 [5] was > 80.7 µM (inactive) and the GI50 [6] was > 31.6 µM (inactive). For the same molecule, the GI50 [7] was > 54.2 µM (inactive), the GI50 [8] was > 83 µM (inactive) and the GI50 [9] was 31.8 µM (inactive). For the same molecule, the GI50 [10] was > 89.7 µM (inactive), the GI50 [11] was > 100 µM (inactive) and the GI50 [12] was > 78.9 µM (inactive). For the same molecule, the GI50 [13] was 71.1 µM (inactive), the GI50 [14] was > 100 µM (inactive) and the GI50 [15] was > 82.2 µM (inactive). For the same molecule, the GI50 [16] was 60.4 µM (inactive), the GI50 [17] was > 100 µM (inactive) and the GI50 [18] was > 53.5 µM (inactive). For the same molecule, the GI50 [19] was > 35.2 µM (inactive), the GI50 [20] was > 100 µM (inactive) and the GI50 [21] was > 100 µM (inactive). The GI50 [22] was > 100 µM (inactive), the GI50 [23] was > 44.6 µM (inactive) and the GI50 [24] was > 46 µM (inactive). The GI50 [25] was > 80.2 µM (inactive), the GI50 [26] was 85.7 µM (inactive) and the GI50 [27] was > 91.2 µM (inactive). The GI50 [28] was 63.7 µM, the GI50 [29] was 94.8 µM (inactive) and the GI50 [30] was 34.9 µM (inactive). The GI50 [31] was 37.8 µM (inactive), the GI50 [32] was > 76.2 µM (inactive) and the GI50 [33] was > 51.2 µM (inactive). The GI50 [34] was > 100 µM (inactive), the GI50 [35] was > 100 µM (inactive) and the GI50 [36] was > 71.4 µM (inactive). The GI50 [37] was > 100 µM (inactive), the GI50 [38] was > 71.8 µM (inactive) and the GI50 [39] was > 100 µM (inactive). The GI50 [40] was > 100 µM (inactive), the GI50 [41] was 56.9 µM (inactive) and the GI50 [42] was > 92.5 µM (inactive). For the same molecule, the GI50 [43] was > 82.2 µM (inactive), the GI50 [44] was 92.9 µM (inactive) and the GI50 [45] was > 65.2 µM (inactive). For the same molecule, the GI50 [46] was 64.4 µM (inactive), the GI50 [47] was > 85.3 µM (inactive) and the GI50 [48] was 71 µM (inactive). For the same molecule, the GI50 [49] was > 81.1 µM (inactive), the GI50 [50] was 31.6 µM (inactive) and the GI50 [51] was > 100 µM (inactive). For the same molecule, the GI50 [52] was 53.7 µM (inactive), the GI50 [53] was 71.4 µM (inactive) and the GI50 [54] was > 89.5 µM (inactive).
In the case of `N#CC1(c2nc3ccccc3o2)C(=O)C(=O)N(C2C3CC4CC(C3)CC2C4)C(=O)C1=O` (stereo unspecified), the GI50 [1] is reported as > 100 µM (inactive), the GI50 [3] is reported as > 100 µM (inactive) and the GI50 [4] is reported as > 100 µM (inactive). For the same molecule, the GI50 [5] was > 100 µM (inactive), the GI50 [6] was 64.9 µM (inactive) and the GI50 [7] was > 100 µM (inactive). The GI50 [55] was > 100 µM (inactive), the GI50 [8] was > 100 µM (inactive) and the GI50 [9] was > 100 µM (inactive). The GI50 [10] was > 100 µM (inactive), the GI50 [11] was > 100 µM (inactive) and the GI50 [12] was > 100 µM (inactive). The GI50 [13] was > 100 µM (inactive), the GI50 [56] was > 100 µM (inactive) and the GI50 [14] was > 100 µM (inactive). The GI50 [15] was > 100 µM (inactive), the GI50 [16] was > 100 µM (inactive) and the GI50 [17] was > 100 µM (inactive). For the same molecule, the GI50 [18] was > 100 µM (inactive), the GI50 [19] was > 100 µM (inactive) and the GI50 [20] was > 100 µM (inactive). The GI50 [21] was 42 µM (inactive), the GI50 [22] was > 100 µM (inactive) and the GI50 [23] was > 100 µM (inactive). For the same molecule, the GI50 [24] was > 100 µM (inactive), the GI50 [25] was > 100 µM (inactive) and the GI50 [57] was > 100 µM (inactive). For the same molecule, the GI50 [26] was > 100 µM (inactive), the GI50 [27] was 26.4 µM (inactive) and the GI50 [28] was over 100 µM. The GI50 [58] was > 100 µM (inactive), the GI50 [29] was > 100 µM (inactive) and the GI50 [30] was > 100 µM (inactive). For the same molecule, the GI50 [31] was > 100 µM (inactive), the GI50 [32] was > 100 µM (inactive) and the GI50 [34] was > 100 µM (inactive). The GI50 [59] was > 100 µM (inactive), the GI50 [35] was > 100 µM (inactive) and the GI50 [36] was > 100 µM (inactive). The GI50 [37] was > 100 µM (inactive), the GI50 [38] was > 100 µM (inactive) and the GI50 [39] was > 100 µM (inactive). The GI50 [40] was > 100 µM (inactive), the GI50 [41] was > 100 µM (inactive) and the GI50 [42] was > 100 µM (inactive). The GI50 [60] was > 100 µM (inactive), the GI50 [43] was > 100 µM (inactive) and the GI50 [44] was 84.9 µM (inactive). The GI50 [45] was > 100 µM (inactive), the GI50 [46] was > 100 µM (inactive) and the GI50 [48] was > 100 µM (inactive). The GI50 [49] was > 100 µM (inactive), the GI50 [50] was > 100 µM (inactive) and the GI50 [51] was > 100 µM (inactive). For the same molecule, the GI50 [52] was > 100 µM (inactive), the GI50 [53] was > 100 µM (inactive) and the GI50 [54] was > 100 µM (inactive).
